# Tests used:
# [1] = test system: HCV genotype 2a replicon; experiment: HCV subgenomic replicon assay, genotype 2a; format: cell-based; conditions: Hepatitis C virus
# [2] = 786-O xenograft study: body weight and clinical observations; conditions: 786-O study, in words
# [3] = Whole-body autoradiography: brain tissue plasma concentration ratios (blood-brain barrier penetration); format: in vivo, rats; conditions: in words
# [4] = test system: Influenza A; experiment: microbe, parasite or virus in culture; format: cell-based, influenza virus
smiles,measurement,setting,value
COc1ccc([C@H]2c3[nH]c4ccc(Cl)cc4c3CCN2C(=O)Oc2ccc(Cl)cc2)cc1 (racemic) [Compound #10],IC50,[1],< 3 nM
same,Survival of treated mice,[2]; all mice,survived until sacrificed
same,Body weight change from initial body weight,[2],did not lose weight
same,Blood-brain barrier penetration,[3],penetrates the blood-brain barrier
same,Inhibition of influenza virus,[4],did not exhibit any selective inhibition
same,IC50,"[4]; Influenza A virus, MDCK",> 1000 nM
same,IC90,"[4]; Influenza A virus, MDCK",> 1000 nM
